Laboratory results taken from patent US10798942B2, “Abiotic stress tolerance” (SYNGENTA PARTICIPATIONS AG, priority 2016, dated 2020).

Test system: rice plants
Test: Multi-year analysis for 2015-2016 of field trials (17 trials)
Format: in vivo, Oryza sativa L.
Details: 2015-2016, 17 trials; for Thousand grain weight (g/1000 seed): UTC 17.01; for Empty spikelets (number per 12 rice hills): UTC 5636; for Yield at 14% MC (kg/ha): UTC 6318
Protocol: Rice (Oryza sativa L.) of the local varieties ADT43, ADT45 and NK5251 were mechanically transplanted at four plants per hill with a plant spacing of 16 cm and a row spacing of 30 cm. All trials were performed in good level of water management. Fertilizer was applied in accordance with the best local practice across the trial area. Commercial treated seeds (no neonicotinoids as seed treatments) were used. Weed control was according to the best local practice in order to provide excellent weed control. Foliar fungicides and insecticides were applied according to common practice (no products that contain neonicotinoids or strobilurins). The trial design was a randomized bloc design. Plot size was 40 m^2 (4 m width [12 rows] by 10 m row length). Each trial had four replicates. In total, eleven trials were conducted. The compound of formula (Ia) was applied at a rate of 10 g ai/ha with small-plot hand-held boom sprayer. Application of the compound was as broadcast foliar spray in close proximity to leaf/canopy surface (25-40 cm distance from the crop). The used spray volumes were between 250 L/ha and 500 L/ha. Application was done either at panicle initiation (BBCH 30), at panicle formation (BBCH 32), at spikelet differentiation (BBCH 35), at meiosis (BBCH 39) or at heading (BBCH 51). In some experiments, the compound was applied twice (2×10 g ai/ha) at consecutive growth stages (i.e., BBCH 30+32, BBCH 32+35, BBCH 35+39, and BBCH 39+51). Tolerance to heat stress was assessed by measuring the following yield components: number of panicles per area, number of grains per panicle, percentage of ripened (filled) grains, number of tillers per area, percentage of productive tillers, grain yield per area at 14% moisture and thousand grain weight (TGVV). Further trials were conducted in the Tamil Nadu rice production area (India) in 2016 using the protocol as described above using rice variety ADT45, with treatment timings of panicle initiation (BBCH 30), panicle formation (BBCH 32), spikelet differentiation (BBCH 35) and meiosis (BBCH 39) only. The compound of formula (Ia) was applied at a rate of 10 g Al/ha. Grain yield was measured at 14% moisture content (MC).

COc1cccc(Nc2nc(F)nc3[nH]cnc23)c1 [formula (Ia)]
Empty spikelets, % change compared to UTC (BBCH 30 at application): −12.5% | Thousand grain weight, % change compared to UTC (BBCH 30 at application): +1.3% | Yield at 14% MC, % change compared to UTC (BBCH 30 at application): +4.1% | Thousand grain weight (g/1000 seed) (BBCH 30 at application): 17.24 g/1000 seed | Empty spikelets (number per 12 rice hills) (BBCH 30 at application): 4927 number per 12 rice hills | Yield at 14% MC (kg/ha) (BBCH 30 at application): 6583 kg/ha | Empty spikelets, % change compared to UTC (BBCH 32 at application): −9.2% | Thousand grain weight, % change compared to UTC (BBCH 32 at application): +1.4% | Yield at 14% MC, % change compared to UTC (BBCH 32 at application): +6.5% | Thousand grain weight (g/1000 seed) (BBCH 32 at application): 17.25 g/1000 seed | Empty spikelets (number per 12 rice hills) (BBCH 32 at application): 5115 number per 12 rice hills | Yield at 14% MC (kg/ha) (BBCH 32 at application): 6727 kg/ha | Empty spikelets, % change compared to UTC (BBCH 35 at application): −7.6% | Thousand grain weight, % change compared to UTC (BBCH 35 at application): +1.3% | Yield at 14% MC, % change compared to UTC (BBCH 35 at application): +6.3% | Thousand grain weight (g/1000 seed) (BBCH 35 at application): 17.23 g/1000 seed | Empty spikelets (number per 12 rice hills) (BBCH 35 at application): 5206 number per 12 rice hills | Yield at 14% MC (kg/ha) (BBCH 35 at application): 6713 kg/ha | Empty spikelets, % change compared to UTC (BBCH 39 at application): −8.3% | Thousand grain weight, % change compared to UTC (BBCH 39 at application): +1.4% | Yield at 14% MC, % change compared to UTC (BBCH 39 at application): +5.2% | Thousand grain weight (g/1000 seed) (BBCH 39 at application): 17.25 g/1000 seed | Empty spikelets (number per 12 rice hills) (BBCH 39 at application): 5170 number per 12 rice hills | Yield at 14% MC (kg/ha) (BBCH 39 at application): 6643 kg/ha
